Experimental data: patent US20260209211A1, “CYCLIN K DEGRADER AND USE THEREOF” (ADLAI NORTYE BIOPHARMA CO., LTD., priority 2022, published 2026)
Where two headings read alike, the source gives them in different places.

Test system: HGC27 (Human Gastric Cancer Cell)
Test: Bioactivity assay for HGC27 cell growth inhibition (CellTiter-Glo)
Type: cell-based
Conditions: read-out: HGC27 CTG IC50
Description: This detection method is used to evaluate the biological activity of the compounds of the present disclosure at the cellular level.
HGC27 cells (purchased from the Chinese Academy of Sciences) were harvested, resuspended in complete medium and adjusted to a cell density of 0.2×10^6 cells per ml. The cell suspension was added to a 96-well plate at a volume of 100 μL per well and cultured overnight in a 37° C., 5% CO2 incubator. Prepare the test compound and add it to the cell plate so that the highest concentration of the compound is 10 μM. Set 8 concentration points according to 3-fold dilution. At the same time, 100% inhibition control wells were set, that is, wells with no cells but only an equal volume of complete culture medium; and 0% inhibition control wells, that is, wells with cells added with 0.1% DMSO. The cell plate was cultured at 37° C. and 5% CO2 for 24 hours. Remove the cell culture plate and add 25 μl CellTiter-Glo® Luminescent Cell Viability Reagent (promega cat #G7573) to each well. Incubate in the dark for 10 minutes and then transfer 100 μL to a white plate and use Molecular Devices SpectraMax i3 to detect chemiluminescence. The inhibition rate was calculated using the following formula for data processing: compound inhibition rate=(0% inhibition control well signal−compound treatment well signal)/(0% inhibition control well signal−100% inhibition control well signal)*100%. The calculated data were fitted with four parameters using GraphPad Prism software and the corresponding IC50 was calculated.

[1] = HGC-27, HGC27 cells, 24 hours, CellTiter-Glo, highest concentration 10 μM

| IC50 [1] [nM] | SMILES | IC50 (HGC-27, 24 h) [nM] |
| --- | --- | --- |
| 342 | Cn1c2cc(CNc3ncc(C(F)(F)F)c(OC4COC4)n3)ccc2c2ncccc21 [Compound 3] | – |
| 238 | CC[C@@H](Nc1nc(NCc2ccc3c(c2)[nH]c2cccnc23)ncc1C(F)(F)F)C(N)=O [Compound 4] | – |
| 30 | C[C@@H](O)[C@@H](CO)Nc1nc(NCc2ccc3c(c2)[nH]c2cccnc23)ncc1C(F)(F)F [Compound 5] | – |
| 145 | Cc1ccnc2c1[nH]c1cc(CNc3ncc(C(F)(F)F)c(OC4COC4)n3)ccc12 [Compound 6] | – |
| 43 | OCc1ccnc2c1[nH]c1cc(CNc3ncc(C(F)(F)F)c(OC4COC4)n3)ccc12 [Compound 7] | – |
| 308 | Cc1ccc2[nH]c3cc(CNc4ncc(C(F)(F)F)c(OC5COC5)n4)ccc3c2n1 [Compound 8] | – |
| 292 | FC(F)(F)c1cnc(NCc2ccc3c(c2)oc2cccnc23)nc1OC1COC1 [Compound 9] | – |
| 225 | FC(F)(F)c1cnc(NCc2ccc3c(n2)[nH]c2cccnc23)nc1OC1COC1 [Compound 10] | – |
| 62 | C[C@@H](O)[C@@H](C)Oc1nc(NCc2ccc3c(c2)[nH]c2cccnc23)ncc1C(F)(F)F [Compound 11] | – |
| 75 | FC(F)(F)c1cnc(NCc2ccc3c(c2)[nH]c2ncsc23)nc1OC1COC1 [Compound 14] | – |
| 520 | Cc1cc2c(cc1CNc1ncc(C(F)(F)F)c(OC3COC3)n1)[nH]c1cccnc12 [Compound 16] | – |
| 62 | NCc1ccnc2c1[nH]c1cc(CNc3ncc(C(F)(F)F)c(OC4COC4)n3)ccc12 [Compound 19] | – |
| 454 | FC(F)(F)c1cnc(NCc2cc3[nH]c4cccnc4c3s2)nc1OC1COC1 [Compound 20] | – |
| 13 | CC[C@@H](Nc1nc(NCc2ccc3c(c2)[nH]c2c(CO)ccnc23)ncc1C(F)(F)F)[C@@H](C)O [Compound 23] | – |
| 80 | N#Cc1cccc2c3ccc(CNc4ncc(C(F)(F)F)c(OC5COC5)n4)cc3nn12 [Compound 24] | – |
| 387 | OCc1cccc2c3ccc(CNc4ncc(C(F)(F)F)c(OC5COC5)n4)cc3nn12 [Compound 26] | – |
| 21 | C[C@@H](O)[C@@H](C)Oc1nc(NCc2ccc3c(c2)[nH]c2c(CN)ccnc23)ncc1C(F)(F)F [Compound 27] | – |
| 313 | NCc1cccc2c3ccc(CNc4ncc(C(F)(F)F)c(OC5COC5)n4)cc3nn12 [Compound 28] | – |
| 374 | FC(F)(F)c1cnc(NCc2ccc3c(c2)[nH]c2scnc23)nc1OC1COC1 [Compound 29] | – |
| 120 | COc1ccnc2c1[nH]c1cc(CNc3ncc(C(F)(F)F)c(OC4COC4)n3)ccc12 [Compound 35] | – |
| – | FC(F)(F)c1cnc(NCc2ccc3c(c2)nn2cccnc32)nc1OC1COC1 [Compound 36] | 133 |
| 89 | FC(F)(F)c1cnc(NCc2ccc3c(c2)[nH]c2ncccc23)nc1OC1COC1 [Compound 45] | – |
| 79 | C[C@@H](Nc1nc(NCc2ccc3c(c2)[nH]c2c(CO)ccnc23)ncc1C(F)(F)F)C(N)=O [Compound 46] | – |
| 266 | CC[C@@H](Nc1nc(NCc2ccc3c(c2)[nH]c2c(CNC(C)=O)ccnc23)ncc1C(F)(F)F)C(N)=O [Compound 47] | – |
| – | FC(F)(F)c1cnc(NCc2ccc3c(c2)nn2ccncc32)nc1OC1COC1 [Compound 49] | 510 |
| 257 | CC(C)[C@@H](Nc1nc(NCc2ccc3c(c2)nn2c(CO)ccnc32)ncc1C(F)(F)F)C(N)=O [Compound 50] | – |
| 145 | FC(F)(F)c1cnc(NCc2ccc3c(c2)nc2cccnn23)nc1OC1COC1 [Compound 51] | – |
| 48 | N#Cc1ccnc2c1[nH]c1cc(CNc3ncc(C(F)(F)F)c(N[C@@H]4CN(C(=O)CO)CC[C@@H]4O)n3)ccc12 [Compound 92] | – |
| 110 | N#Cc1ccnc2c3ccc(CNc4ncc(C(F)(F)F)c(N[C@@H]5CNCC[C@@H]5O)n4)cc3nn12 [Compound 96] | – |
